Laboratory results reported in patent publication US8425945B2, “Methods and compositions for regulating biofilm development” (NewSouth Innovations Pty Limited, priority 2005, dated 2013).

Columns and labels:
[1] = tested on: P. aeruginosa PAO1; assay: Biofilm to planktonic transition on microscope slides in petri dishes with NO donors/scavenger; format: cell-based, Pseudomonas aeruginosa; details: for biofilm formation (percentage of surface coverage) / planktonic growth (OD600 nm of supernatant): NO donor 1 μM, 24 hours, lesser extent than SNP
[2] = tested on: S. marcescens biofilms; assay: Dispersal of biofilms on slides, surface coverage; format: cell-based, Serratia marcescens; details: SNAP 100 nM, 24 hours
[3] = tested on: P. aeruginosa biofilms; assay: Sensitivity of biofilms grown with SNP to antimicrobial agents; format: cell-based, Pseudomonas aeruginosa; details: tobramycin 100 μM, 30 minutes, with 500 nM SNP
[4] = tested on: Vibrio cholerae biofilms; assay: Dispersal of biofilms on slides, surface coverage; format: cell-based; details: 1 μM GSNO, 24 hours

CC1(C)N([O])C(c2ccccc2)=[N+]([O-])C1(C)C [PTIO, 2-phenyl-4,4,5,5-tetramethyl-imidazoline-1-oxyl 3-oxide]
reduction of the SNP effect in both planktonic and biofilm phenotypes ([1]; PTIO 1 mM in addition to SNP 500 nM): ≥ 40%

CC(=O)N[C@H](C(=O)O)C(C)(C)SN=O (racemic) [SNAP, S-nitroso-N-acetylpenicillamine]
biofilm formation (percentage of surface coverage) [1]: decreases in biofilm formation | planktonic growth (OD600 nm of supernatant) [1]: increases in planktonic growth | dispersal of biofilms [2]: effective for dispersal

NC[C@H]1O[C@H](O[C@H]2[C@H](O)[C@@H](O[C@H]3O[C@H](CO)[C@@H](O)[C@H](N)[C@H]3O)[C@H](N)C[C@@H]2N)[C@H](N)C[C@@H]1O [tobramycin]
antimicrobial giving the highest effect in combination with SNP [3]: highest effect

N[C@@H](CCC(=O)N[C@@H](CSN=O)C(=O)NCC(=O)O)C(=O)O [GSNO, S-nitroso-L-glutathione]
biofilm formation (percentage of surface coverage) [1]: decreases in biofilm formation | planktonic growth (OD600 nm of supernatant) [1]: increases in planktonic growth | stability of biofilms [4]: significant effect on stability
